Assay results published in patent publication US6825231B2, “Substituted norbornylamino derivatives, processes for their preparation, their use as medicaments or diagnostics, and a medicament comprising them” (Aventis Pharma Deutschland GmbH, priority 1999, dated 2004).
pIC50: −log10 of the molar value. Counter-ions that a name gives are not always drawn. Blank lines part the entries; values can stand above or below the compound they belong to.

Assays:
Rat NHE3 = target: T1, Rat NHE3 (Rattus norvegicus, UniProt P26433); assay: NHE activity measurement: pHi recovery after acid load in transfected LAP1 cells; format: cell-based; details: pH recovery after acid load, 3 minutes
T1 construct: expressed in transfected cells
Source text: Most molecular biology techniques follow protocols from the works “Current Protocols in Molecular Biology (eds. Ausubel, F. M., Brent, R., Kingston, R. E., Moore, D. D., Seidman, J. G., Smith, J. A. and Struhl, K.; John Wiley & Sons)” or: “Molecular Cloning: A Laboratory Manual (Sambrock, J., Fritsch, E. F. and Maniatis, T.; Cold Spring Harbor Laboratory Press (1989))”. In our studies, stable transfected cell lines were produced which in each case express one of the following NHE subtypes: NHE1 of man (Sardet et al. Cell 56, 271-280 (1989)), NHE2 of the rabbit (Tse et al. J. Biol. Chem. 268, 11917-11924 (1993)), NHE3 from humans (Brant et al. Am. J. Physiol. 269 (Cell Physiol. 38), C198-C206 (1995)) or NHE3 of the rat (Orlowski et al.; J. Biol. Chem. 267, 9331-9339 (1992)).
After adding suitable linker sequences, the cDNA clones of the respective NHE subtypes obtained by Prof. Pouyssegur were cloned into the expression plasmid pMAMneo (obtainable, for example, via CLONTECH, Heidelberg) such that the Nhel restriction endonuclease recognition sequence of the plasmid is approximately 20-100 base pairs before the start codon of the respective NHE subtype and the entire coding sequence is present in the construct. In the human NHE3 obtained from human kidney mRNA via RT-PCR, the RT-PCR primer were selected such that the resulting cDNA band had terminal restriction sites which matched pMAMneo.
Using the so-called “calcium phosphate method” (described in Chapter 9.1 of “Current Protocols in Molecular Biology”), the NHE-deficient cell line LAP1 (Franchi et al.; Proc. Natl. Acad. Sci. USA 83, 9388-9392 (1986)) was transfected with the plasmids which contain the respective coding sequences of the NHE subtypes. After selection of transfected cells by means of growth in G418-containing medium (only cells which as a result of transfection contain a neogene can survive under these conditions), a selection was made for functional NHE expression. To do this, the “Acid Load” technique described by Sardet was used (Sardet et al.; Cell 56, 271-280 (1989)). Cells which express a functioning NHE subtype can also compensate in the absence of CO2 and HCO3- for the acidification carried out during this test, but untransfected LAP1 cells cannot. After repetition of the “Acid Load” selection several times, the surviving cells were inoculated into microtiter plates such that statistically there should have been one cell per well. Under the microscope, a check was made after approximately 10 days as to how many colonies were growing per well. Cell populations of individual colonies were then investigated with respect to their viability after “Acid Load” using the XTT proliferation kit (Boehringer Mannheim). The best cell lines were used for the further tests, and to avoid a loss of the transfected sequence were cultured under continuous selection pressure in G418-containing medium.
To determine IC50-values for the inhibition of the individual NHE subtypes by specific substances, a test developed by S. Faber (Faber et al.; Cell. Physiol. Biochem. 6, 39-49 (1996)), which is based on the “Acid Load” technique, was slightly modified.
In this test, the recovery of the intracellular pH (pHi) after an acidification was determined, which commences with functioning NHE even under bicarbonate-free conditions. To do this, the pHi was determined using the pH-sensitive fluorescent dye BCECF (Calbiochem, the precursor BCECF-AM is employed). The cells were first loaded with BCECF. The BCECF fluorescence was determined in a “Ratio Fluorescence Spectrometer” (Photon Technology International, South Brunswick, N.J., USA) at excitation wavelengths of 505 and 440 nm and an emission wavelength of 535 nm and converted into the pHi by means of calibration curves. […]

Caco 2 cells = assay: Caco 2 model (transport across monolayers, absorbed fraction); format: in vitro ADME; details: Caco 2 monolayers, apical to basolateral, assessed from Papp via calibration curve
Method: The Caco 2 cell line was obtained from the American Type Culture Collection (ATCC) and kept in Dulbecco's Modified Eagle Medium (high proportion of glucose), supplemented with non-essential amino acids, L-glutamine, penicillin/streptomycin, and 10% strength fetal calf serum, in an incubator under a 10% CO2 atmosphere at 95% relative atmospheric humidity and at 37° C. The cells were grown in cell culture flasks (175 cm^2). For the transport studies, the Caco 2 cells were inoculated onto polycarbonate cell culture inserts (COSTAR TRANSWELLS®, pore size: 3 μm, surface: 4.71 cm^2) at a cell density of 6.5×10^4 cells/cm^2 and incubated in six-well culture trays, changing the medium after four and eight days and then every other day. 21- to 25-day-old monolayers were used for the experiments.
In each test series, a 21-day-old monolayer was tested for its properties using ^3H-dextrane as permeability marker. The value of the transfer rate (cumulative) after 120 min had to be in the range of 2%.
The growth medium was removed from the apical and the basolateral side and the monolayers were then rinsed with the transport buffer (Hank's balanced salt solution pH 7.8; contains 2.8 g/l of glucose), and the cells were equilibrated at 37° C. under a 10% CO2 atmosphere for 15 min. The HBSS buffer is then removed.
The test compounds were dissolved in a mixture of HBSS buffer and DMSO and added to the apical buffer, giving a 1% strength (v/v) DMSO solution. The test concentration for the first experiment was 1 mM, that for the second experiment was 100 μM. The experiments were carried out at 37° C. and started by adding 1.5 ml of test solution on the donor side (apical). Transport buffer without compound was added to the recipient side (basolateral, 2.5 ml). […] Apical samples were taken at the start and at the end (120 min), so that the recovery rate of the compounds could be determined using these concentrations and the cumulative basolateral concentration. The compounds were analyzed by HPLC.
The apparent permeability coefficient (Papp) is calculated using the following equation: [formula]
in which dc/dt denotes the flow through the monolayer (μg of compound/(ml×s)), V denotes the liquid volume in the collection chamber (ml), A denotes the surface area of the monolayer (cm^2) and c0 denotes the initial concentration (μg of compound/ml) in the donor chamber. The flow through the monolayer was calculated from the cumulative basolateral concentration at the corresponding point of time using the initially linear data curve (linear up to 60 min). All determinations were carried out in three replications, so that the calculated Papp value is the mean of three measurements. […]

male Wistar rats = assay: Diuresis (salidiuresis) experiment in rats; format: in vivo, rat; details: for Cl / K / Na: urine excretion; for Na/K / Osmolality: urine
Method: The salidiuresis experiment was carried out using male Wistar rats having a weight of 155 to 175 g. 16 hours before the start of the experiment, the feed, but not the drinking water, was withdrawn from the animals. The rats were randomized and placed into diuresis cages. […] The control group received, orally, the corresponding volume of drinking water as vehicle. The excretion of urine of each group for the first 5 hours and in the period from 6 to 24 hours was measured. The urine electrolytes sodium and potassium were determined by flame photometry (flame photometer Eppendorf, Hamburg), and chloride was determined potentiometrically (chloride meter Eppendorf). The osmolality of the urine was determined using the freezing-point depression method (osmometer Vogel, Gieβen). Urine and electrolyte excretion and osmolality are stated in ml/kg, mmol/kg, and mosmol/kg of body weight, respectively. The ratio of Na^+/K^+ is an indication of the quality of effect of a diuretic. The results given in the table are arithmetic means with standard deviation.

[1] = 50 mg/kg p.o., mean, 6-24 hours
[2] = 50 mg/kg p.o., mean, sum 1-24 hours

T1 sequence (P26433 29-831): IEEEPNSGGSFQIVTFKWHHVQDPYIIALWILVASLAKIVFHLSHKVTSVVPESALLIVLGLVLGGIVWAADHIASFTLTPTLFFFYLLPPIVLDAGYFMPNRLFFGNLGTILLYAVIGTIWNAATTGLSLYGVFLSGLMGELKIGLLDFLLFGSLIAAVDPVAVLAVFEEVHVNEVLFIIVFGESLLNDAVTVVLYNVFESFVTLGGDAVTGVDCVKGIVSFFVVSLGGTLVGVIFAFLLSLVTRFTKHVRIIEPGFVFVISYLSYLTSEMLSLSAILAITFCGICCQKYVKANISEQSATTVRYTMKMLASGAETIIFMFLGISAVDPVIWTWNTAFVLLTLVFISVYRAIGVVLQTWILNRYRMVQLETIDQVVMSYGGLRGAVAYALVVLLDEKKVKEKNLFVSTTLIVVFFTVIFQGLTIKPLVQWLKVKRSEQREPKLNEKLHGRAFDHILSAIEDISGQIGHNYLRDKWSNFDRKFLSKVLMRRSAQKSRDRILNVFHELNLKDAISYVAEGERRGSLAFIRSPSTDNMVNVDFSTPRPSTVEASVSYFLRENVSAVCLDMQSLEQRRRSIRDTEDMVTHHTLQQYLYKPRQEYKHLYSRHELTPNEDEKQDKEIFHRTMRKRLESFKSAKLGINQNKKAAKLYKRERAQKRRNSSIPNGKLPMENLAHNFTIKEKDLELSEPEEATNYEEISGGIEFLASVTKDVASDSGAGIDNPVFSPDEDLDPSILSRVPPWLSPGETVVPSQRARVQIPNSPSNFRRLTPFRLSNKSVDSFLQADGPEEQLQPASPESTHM

Compound: COc1cccc(CNC2CC3CC2C2CCCC32)c1 (single isomer, unassigned; (-)) [(−)−6, (−)-(exo/endo)-(3-methoxybenzyl)(octahydro-4,7-methanoinden-5-yl)amine hydrochloride]
pIC50 (Rat NHE3; hydrochloride): 6.00

melting point: 134 °C
Compound: COCCOc1cccc(CN[C@@H]2C[C@@H]3C[C@H]2[C@@H]2CCC[C@H]32)c1.Cl

melting point: 248 °C
Compound: Brc1cccc(CN[C@@H]2C[C@@H]3C[C@H]2[C@@H]2CCC[C@H]32)c1.Cl

Absorbed fraction (Caco 2 cells): 100%
pIC50 (Rat NHE3): 6.05
Compound: Cl.Fc1cccc(CN[C@@H]2C[C@@H]3C[C@H]2[C@@H]2CCC[C@H]32)c1 [Example 10, (exo/endo)-(3-fluorobenzyl)(octahydro-4,7-methanoinden-5-yl)amine hydrochloride]

pIC50 (Rat NHE3): 4.15
Compound: COc1cccc(CN[C@@H]2CC3CC2[C@H]2CCC[C@@H]32)c1 (stereo partly drawn) [Example 8, (endo/endo)-(3-methoxybenzyl)(octahydro-4,7-methanoinden-5-yl)amine hydrochloride]

Absorbed fraction (Caco 2 cells): 100%
pIC50 (Rat NHE3): 6.09
Compound: COc1cccc(CN[C@@H]2C[C@@H]3C[C@H]2[C@@H]2CCC[C@H]32)c1.Cl (racemic) [Example 5, rac-(exo/endo)-(3-methoxybenzyl)(octahydro-4,7-methanoinden-5-yl)amine hydrochloride]
Urine (male Wistar rats; 50 mg in 10 ml of drinking water/kg of BW p.o., n = 5, mean, 1-5 hours): 12.39 mL/kg
salidiuretic effect (assessment) (male Wistar rats; 50 mg/kg orally, compared to the control): no salidiuretic effect
Urine (male Wistar rats; [1]): 22.57 mL/kg
Urine (male Wistar rats; [2]): 34.96 mL/kg
Cl (male Wistar rats; 50 mg/kg p.o., mean, 1-5 hours): 0.60 mmol/kg
K (male Wistar rats; 50 mg/kg p.o., mean, 1-5 hours): 0.75 mmol/kg
Na (male Wistar rats; 50 mg/kg p.o., mean, 1-5 hours): 0.31 mmol/kg
Cl (male Wistar rats; [1]): 1.57 mmol/kg
K (male Wistar rats; [1]): 3.57 mmol/kg
Na (male Wistar rats; [1]): 1.29 mmol/kg
Cl (male Wistar rats; [2]): 2.17 mmol/kg
K (male Wistar rats; [2]): 4.31 mmol/kg
Na (male Wistar rats; [2]): 1.60 mmol/kg
Na/K (male Wistar rats; 50 mg/kg p.o., mean, 1-5 hours): 0.47
Osmolality (male Wistar rats; 50 mg/kg p.o., mean, 1-5 hours): 7.82 mosmol/kg
Na/K (male Wistar rats; [1]): 0.37
Osmolality (male Wistar rats; [1]): 30.51 mosmol/kg
Na/K (male Wistar rats; [2]): 0.38
Osmolality (male Wistar rats; [2]): 38.33 mosmol/kg

Absorbed fraction (Caco 2 cells): <5%
Compound: C/C(=C\c1ccc(C)cc1/C=C(\C)C(=O)N=C(N)N)C(=O)N=C(N)N.Cl.Cl [S 3226, reference compound]

Compound: COc1cccc(CNC2CC3CC2C2CCCC32)c1 (single isomer, unassigned; (+)) [(+)−6, (+)-(exo/endo)-(3-methoxybenzyl)(octahydro-4,7-methanoinden-5-yl) amine hydrochloride]
pIC50 (Rat NHE3; hydrochloride): 6.30

melting point: 222 to 225 °C
Compound: COc1cccc(CCN[C@@H]2C[C@@H]3C[C@H]2[C@@H]2CCC[C@H]32)c1.Cl

pIC50 (Rat NHE3): 5.30
Compound: COc1cccc(CN[C@@H]2C[C@@H]3C[C@H]2[C@H]2CCC[C@@H]32)c1 (relative stereo) [Example 9, (exo/exo)-(3-methoxybenzyl)(octahydro-4,7-methanoinden-5-yl)amine hydrochloride]

pIC50 (Rat NHE3): 4.51
Compound: COc1cccc(CN[C@@H]2CC3CC2[C@@H]2CCC[C@H]32)c1 (stereo partly drawn) [Example 7, (endo/exo)-(3-methoxybenzyl)(octahydro-4,7-methanoinden-5-yl)amine hydrochloride]

Absorbed fraction (Caco 2 cells): <1%
Compound: C/C(=C\c1cccc(/C=C(\C)C(=O)N=C(N)N)c1)C(=O)N=C(N)N.Cl.Cl [S 2120, reference compound]

melting point: 166 to 170 °C (dec.)
Compound: CN(C)c1cccc(CN[C@@H]2C[C@@H]3C[C@H]2[C@@H]2CCC[C@H]32)c1.Cl

melting point: 258 to 261 °C
Compound: O=C(O)c1cccc(CN[C@@H]2C[C@@H]3C[C@H]2[C@@H]2CCC[C@H]32)c1 [Example 14, (exo/endo)-3-[(octahydro-4,7-methanoinden-5-ylamino)-methyl]benzoic acid]

melting point: 220 to 224 °C (dec.)
Compound: Cl.Ic1cccc(CN[C@@H]2C[C@@H]3C[C@H]2[C@@H]2CCC[C@H]32)c1

melting point: 186 to 188 °C
Compound: COc1cccc(CCCN[C@@H]2C[C@@H]3C[C@H]2[C@@H]2CCC[C@H]32)c1.Cl

melting point: 234 to 236 °C
Compound: COc1cccc(CN[C@@H]2C[C@@H]3C[C@H]2[C@@H]2CCCC[C@H]32)c1.Cl
